Assays:
Type in all cases: functional
Homo sapiens [1] = experiment: Reduction of cardiovascular events in patient with acute MI and coronary revascularization assessed as reduction in death at 7.5 mg, po bid; parameters: scale not given: the % may be the effect or the level left
Homo sapiens [2] = experiment: Reduction of cardiovascular events in patient with severe chronic heart failure assessed as reduction in death at 7.5 mg, po bid for 14 days; parameters: scale not given: the % may be the effect or the level left
Homo sapiens [3] = experiment: Reduction of cardiovascular events in patient with severe chronic heart failure and left ventricular systolic dysfunction assessed as relative risk reduction at 7.5 mg, po bid for 14 days; parameters: scale not given: the % may be the effect or the level left
Homo sapiens [4] = experiment: Reduction of cardiovascular events in patient with severe chronic heart failure assessed as reduction in heart rate at 7.5 mg, po bid for 14 days
Homo sapiens [5] = experiment: Reduction of cardiovascular events in patient with acute MI and coronary revascularization assessed as reduction in heart rate at 7.5 mg, po bid
Homo sapiens [6] = experiment: Reduction of cardiovascular events in patient with coronary artery disease and left ventricular systolic dysfunction assessed as relative risk reduction at 7.5 mg, po bid; parameters: scale not given: the % may be the effect or the level left

Compound: COc1cc2c(cc1OC)CC(=O)N(CCCN(C)C[C@H]1Cc3cc(OC)c(OC)cc31)CC2 [IVABRADINE]
- Activity (Homo sapiens [1]): 31%
- Activity (Homo sapiens [2]): 26%
- Activity (Homo sapiens [3]): 18%
- Activity (Homo sapiens [4]): 15 bpm
- Activity (Homo sapiens [5]): 12 bpm
- Activity (Homo sapiens [6]): <=24%
